Publication PMC9606955, “In Vitro Activity of Essential Oils Distilled from Colombian Plants against Candida auris and Other Candida Species with Different Antifungal Susceptibility Profiles” (Molecules, 2022)
Values after ≈ are worked out from the molar mass of the structure shown. “Also recorded” adds a separate entry of the source.

Assays:
[1] = system: C. metapsilosis MUM 15.12; experiment: MIC, CLSI M27 broth microdilution; type: cell-based, Candida metapsilosis; conditions: Lodderomyces metapsilosis, MUM15.12; C. metapsilosis MUM 17.13 (Table 3); EOs and terpenes; 24 h; top concentration 256 µg/mL; read-out: GM MIC
Description: (§1) The fungal strains used in this study were C. albicans ATCC 10231, C. albicans ATCC 64550, C. parapsilosis ATCC 22019, C. tropicalis ATCC 750, C. tropicalis ATCC 200956 (resistant to azoles and AMB), C. glabrata LMDM 34 (resistant to echinocandins), C. metapsilosis MUM 15.12, C. orthopsilosis MUM 17.13, C. lusitaniae MUM 17.08, C. krusei ATCC 6258 (Issatchenkia orientalis ATCC 6258), and C. auris CDC B11903. Additionally, nine clinical isolates were included: C. parapsilosis Synlab 406 (FLC-resistant) and eight C. auris isolates identified by MALDI-TOF MS (Bruker Daltonics, Bremen, Germany) according to Zhao et al.. These yeasts were cultured on Sabouraud Dextrose Agar (SDA; Sigma-Aldrich, St. Louis, MO, USA) for 24 h at 35 °C.
(§2) Antifungal susceptibility testing was performed according to Clinical and Laboratory Standards Institute M27, 4th Edition (CLSI standard M27, 4th Edition). Some modifications were applied for evaluation of the antifungal activity of EOs and terpenes. Initially, a screening was carried out to determine the antifungal activity of the EOs and of commercial terpenes. Stock concentrations of EOs and terpenes were prepared at 512 µg/mL and an inoculum of 2.5 × 10^3 CFU/mL of each yeast was prepared in RPMI 1640-MOPS (Sigma- Aldrich St. Louis, MO, USA). Thereafter, 100 µL of each stock solution of EOs or terpenes was dispensed in 96-well microdilution plates (Corning®, Costar®, NY, USA) and 100 µL of each yeast inoculum was added. […] Microdilution plates were incubated at 35 °C and, after 24 h, the presence or absence of growth was visually checked using a manual mirror viewer and then compared with the amount of growth in the control (no EO or terpene). Compounds able to inhibit yeast growth were tested to determine the minimal inhibitory concentration (MIC) as follows: 100 µL of 10 two-fold dilutions of the EOs or commercial terpenes was dispensed in 96-well microplates and the yeast inoculum was added. Final concentrations of the EOs or terpenes ranged from 0.5 µg/mL to 256 µg/mL. Microdilution plates were incubated at 35 °C for 24 h. MICs were visually determined at the lowest concentration that produced visual inhibition compared to the growth control. The assays were performed at least three times in duplicate on different days. The results were expressed as geometric means (GM) and ranges. As an antifungal susceptibility testing control, the activity of ITC and AMB against the reference strains C. krusei ATCC 6258 and C. parapsilosis ATCC 22019 was evaluated in all experiments following the CLSI standard M27, 4th Edition. It was mandatory that the MIC values remained in the accepted range.

[2] = system: C. tropicalis ATCC 200956; experiment: Time–kill assay; type: cell-based, Candida tropicalis; conditions: 1X and 2X MIC, 24 h
Experimental: (§3) Time–kill assays with the L. origanoides (thymol + p-cymene) chemotype (Code 0018) EO, thymol, FLC, and AMB against C. albicans ATCC 10231, C. tropicalis ATCC 200956, and C. auris CDC B11903 were performed according to the protocol published by Klebser et al. with some modifications. […] Absorbance at λ = 490 nm was measured every 2 h with a Multiskan SkyHigh Microplate Spectrophotometer. AMB and FLC were included as fungicidal and fungistatic control drugs, respectively.

C. auris CDC B11903 [3] = experiment: Time–kill assay; type: cell-based, Candida auris
Experimental: as §3

Candida spp. = experiment: Screening of antifungal activity at 256 µg/mL against twenty strains; type: cell-based; conditions: screening at 256 µg/mL
Description: as §1
Antifungal susceptibility testing was performed according to Clinical and Laboratory Standards Institute M27, 4th Edition (CLSI standard M27, 4th Edition). Some modifications were applied for evaluation of the antifungal activity of EOs and terpenes. Initially, a screening was carried out to determine the antifungal activity of the EOs and of commercial terpenes. Stock concentrations of EOs and terpenes were prepared at 512 µg/mL and an inoculum of 2.5 × 10^3 CFU/mL of each yeast was prepared in RPMI 1640-MOPS (Sigma- Aldrich St. Louis, MO, USA). Thereafter, 100 µL of each stock solution of EOs or terpenes was dispensed in 96-well microdilution plates (Corning®, Costar®, NY, USA) and 100 µL of each yeast inoculum was added. […] MICs were visually determined at the lowest concentration that produced visual inhibition compared to the growth control. […] The results were expressed as geometric means (GM) and ranges. As an antifungal susceptibility testing control, the activity of ITC and AMB against the reference strains C. krusei ATCC 6258 and C. parapsilosis ATCC 22019 was evaluated in all experiments following the CLSI standard M27, 4th Edition. […]

C. auris = system: C. auris; set-up: method as in PMID 31980703; conditions: cited from earlier work
Cytotoxicity, MTT assay = conditions: human, HaCaT keratinocyte cells
Experimental: Cells were cultured in Dulbecco’s Modified Eagle Medium (DMEM; Sigma-Aldrich, St. Louis, MO, USA) supplemented with 10% fetal bovine serum (Invitrogen, Carlsbad, CA, USA), 1% penicillin, streptomycin, and neomycin (Invitrogen, Carlsbad, CA, USA), and 1% L-glutamine (Invitrogen, Carlsbad, CA, USA) at 37 °C in a humidified atmosphere of 5% CO2. […] Afterwards, the culture medium was removed and 3-(4.5-dimethylthiazol-2-yl)-2.5-diphenyltetrazolium bromide (MTT) (Sigma-Aldrich, St. Louis, MO, USA) at 5 mg/mL was added at 37 °C for 2 h. Subsequently, DMSO was added to dissolve the formazan crystals. Finally, the absorbances were measured with a Multiskan SkyHigh Microplate Spectrophotometer (Thermo Fisher Scientific, Waltham, MA, USA) at λ = 570 nm. The CC50 values were obtained by linear regression analysis with concentration–response curves, which were performed with absorbance data using GraphPad Prism software (Prism 9.3.0, San Diego, CA, USA). The assays were conducted at two separate times in triplicate. The data were expressed as means.

C. albicans ATCC 10231 = experiment: Time–kill assay; type: cell-based, Candida albicans; conditions: 1X and 2X MIC, 24 h
Experimental: as §3

[4] = system: C. orthopsilosis MUM 17.13; experiment: MIC, CLSI M27 broth microdilution; type: cell-based, Candida orthopsilosis; conditions: Lodderomyces orthopsilosis, MUM17.13; C. orthopsilosis MUM 15.12 (Table 3); EOs and terpenes; 24 h; top concentration 256 µg/mL; read-out: GM MIC
Description: as §1, §2

[5] = system: C. tropicalis ATCC 200956; experiment: MIC, CLSI M27 broth microdilution; type: cell-based, Candida tropicalis; conditions: C. tropicalis ATCC 200956, EOs and terpenes; for MIC: Candida tropicalis, ATCC200956, 24 h, top concentration 256 µg/mL, read-out: GM MIC
Description: as §1, §2

C. auris Ca 1 = experiment: MIC, CLSI M27 broth microdilution; type: cell-based, Candida auris; conditions: C. auris Ca 1, EOs and terpenes
Description: as §1, §2

C. auris Ca 13 = experiment: MIC, CLSI M27 broth microdilution; type: cell-based, Candida auris; conditions: Candidozyma auris, CA13; C. auris Ca 13; EOs and terpenes; 24 h; top concentration 256 µg/mL; read-out: GM MIC
Description: as §1, §2

C. auris Ca 9 = experiment: MIC, CLSI M27 broth microdilution; type: cell-based, Candida auris; conditions: Candidozyma auris, CA9; C. auris Ca 9; EOs and terpenes; 24 h; top concentration 256 µg/mL; read-out: GM MIC
Description: as §1, §2

C. auris Ca 17 = experiment: MIC, CLSI M27 broth microdilution; type: cell-based, Candida auris; conditions: Candidozyma auris, CA17; C. auris Ca 17; EOs and terpenes; 24 h; top concentration 256 µg/mL; read-out: GM MIC
Description: as §1, §2

C. auris Ca 41 = experiment: MIC, CLSI M27 broth microdilution; type: cell-based, Candida auris; conditions: Candidozyma auris, CA41; C. auris Ca 41; EOs and terpenes; 24 h; top concentration 256 µg/mL; read-out: GM MIC
Description: as §1, §2

C. auris Ca 45 = experiment: MIC, CLSI M27 broth microdilution; type: cell-based, Candida auris; conditions: Candidozyma auris, CA45; C. auris Ca 45; EOs and terpenes; 24 h; top concentration 256 µg/mL; read-out: GM MIC
Description: as §1, §2

C. auris Ca 32 = experiment: MIC, CLSI M27 broth microdilution; type: cell-based, Candida auris; conditions: Candidozyma auris, CA32; C. auris Ca 32; EOs and terpenes; 24 h; top concentration 256 µg/mL; read-out: GM MIC
Description: as §1, §2

C. auris Ca 46 = experiment: MIC, CLSI M27 broth microdilution; type: cell-based, Candida auris; conditions: Candidozyma auris, CA46; C. auris Ca 46; EOs and terpenes; 24 h; top concentration 256 µg/mL; read-out: GM MIC
Description: as §1, §2

C. auris CDC B11903 [6] = experiment: MIC, CLSI M27 broth microdilution; type: cell-based, Candida auris; conditions: Candidozyma auris, CDCB11903; C. auris CDC B11903; EOs and terpenes; 24 h; top concentration 256 µg/mL; read-out: GM MIC
Description: as §1, §2

C. lusitaniae MUM 17.08 = experiment: MIC, CLSI M27 broth microdilution; type: cell-based, Candida lusitaniae; conditions: C. lusitaniae MUM 17.08, EOs and terpenes; for MIC: Clavispora lusitaniae, MUM17.08, 24 h, top concentration 256 µg/mL, read-out: GM MIC
Description: as §1, §2

C. krusei ATCC 6258 = experiment: MIC, CLSI M27 broth microdilution; type: cell-based, Candida krusei; conditions: C. krusei ATCC 6258, EOs and terpenes; for MIC: Pichia kudriavzevii, ATCC6258, 24 h, top concentration 256 µg/mL, read-out: GM MIC
Description: as §1, §2

[7] = system: C. parapsilosis Synlab 406; experiment: MIC, CLSI M27 broth microdilution; type: cell-based, Candida parapsilosis; conditions: Lodderomyces parapsilosis, SYNLAB406; C. parapsilosis Synlab 406; EOs and terpenes; 24 h; top concentration 256 µg/mL; read-out: GM MIC
Description: as §1, §2

Row | Structure (SMILES) | MIC [1] [µg/mL] | CC50 at 24 h (Cytotoxicity, MTT assay) [µg/mL] | MIC [4] [µg/mL] | Range MIC [5] [µg/mL] | MIC [5] [µg/mL] | MIC (C. auris Ca 13) [µg/mL] | MIC (C. auris Ca 9) [µg/mL] | MIC (C. auris Ca 17) [µg/mL] | MIC (C. auris Ca 41) [µg/mL] | MIC (C. auris Ca 45) [µg/mL] | MIC (C. auris Ca 32) [µg/mL] | MIC (C. auris Ca 46) [µg/mL] | MIC (C. auris CDC B11903 [6]) [µg/mL] | MIC (C. lusitaniae MUM 17.08) [µg/mL] | Range MIC (C. krusei ATCC 6258) [µg/mL] | MIC (C. krusei ATCC 6258) [µg/mL] | MIC [7] [µg/mL] | other results
1 | Cc1ccc(C(C)C)c(O)c1 [Thymol, thymol] | 128 (≈ 852 µM) | 428 (≈ 2850 µM) | 128 (≈ 852 µM) | 64 to 128 | 90.5 (≈ 602 µM) | 128 (≈ 852 µM) | 128 (≈ 852 µM) | 64 (≈ 426 µM) | 64 (≈ 426 µM) | 64 (≈ 426 µM) | 64 (≈ 426 µM) | 64 (≈ 426 µM) | 64 (≈ 426 µM) | 90.5 (≈ 602 µM) | 128 to 256 | 181 (≈ 1200 µM) | 64 (≈ 426 µM) | effect in time–kill assay [2]: fungicidal; effect on growth in time–kill assay (C. auris CDC B11903 [3]; 0.5, 1 and 2X MIC, 24 h): not affected; also recorded: did not show fungicidal activity; lag-phase in time–kill assay (C. auris CDC B11903 [3]; 2X MIC): extended lag-phase; antifungal activity in screening (Candida spp.): active against all tested Candida spp.; MIC Range (C. auris): 156 to 625 µg/mL; effect in time–kill assay (C. albicans ATCC 10231): fungicidal; Range MIC (C. auris Ca 1): 128 to 256 µg/mL; MIC (C. auris Ca 1; Candidozyma auris, CA1, 24 h, top concentration 256 µg/mL, read-out: GM MIC): 181 µg/mL (≈ 1200 µM); Range MIC (C. lusitaniae MUM 17.08): 64 to 128 µg/mL
2 | Cc1ccc(C(C)C)cc1 [p-Cymene, p-cymene] | 256 (≈ 1910 µM) | 831 (≈ 6190 µM) | 256 (≈ 1910 µM) | 128 to 256 | 181 (≈ 1350 µM) | 256 (≈ 1910 µM) | 256 (≈ 1910 µM) | 256 (≈ 1910 µM) | 256 (≈ 1910 µM) | 256 (≈ 1910 µM) | 128 (≈ 954 µM) | 256 (≈ 1910 µM) | 256 (≈ 1910 µM) | 256 (≈ 1910 µM) | 128 to 256 | 181 (≈ 1350 µM) | 256 (≈ 1910 µM) | –
